Converted amounts (≈) assume the structure as drawn.
system: Sphaerotheca fuliginea; test: Test B-5 Control Test to Powdery Mildew of Cucumber; assay type: in vivo; conditions: 500 ppm, 2 weeks
Procedure: Test B-5 Control Test to Powdery Mildew of Cucumber
Each cucumber seedling was sprayed with 2.5 ml of a test solution. The seedlings were kept at 25°-26° C. for 1 day after the spraying and then sprayed with a conidium (1×10^5 conidia/ml) of Sphaerotheca fuliginea in a 100 ppm spreader solution (containing 20% polyoxyethylene glycol alkyl phenol ether and 12% lignin sulfonate) at a rate of 25 ml/20 cups.
The seedlings were kept in a greenhouse (25° C.) for 2 weeks and then observed.
Standard of Evaluation [formula]
(§1) The percent disease control was calculated in the same manner as in Test B-1.

Structure (SMILES)	Percent Disease Control
CCc1noc(N(C)CC#CI)c1Cl [Comp. 1, 3-ethyl-4-chloro-5-(N-methyl-N-3-iodo-2-propynyl)-aminoisoxazole]	100%
Cc1noc(N(C)CC#CI)c1Cl [Comp. 24]	100%
CC(C)c1noc(N(C)CC#CI)c1Cl [Comp. 26]	100%
Cc1cc(N(C)CC#CI)no1 [compound 32, 3-(N-methyl-N-3-iodo-2-propynyl)amino-5-methylisoxazole]	100%

system: Sclerotinia sclerotiorum; test: Test B-2 Control Test to Sclerotinia Rot of Cucumber; assay type: in vivo; conditions: 48 h, 2 days, read-out: Percent Disease Control
Procedure: Test B-2 Control Test to Sclerotinia Rot of Cucumber
Cucumber seedlings were sprayed with 2.5 ml of a test solution in the same manner as in Test B-1. Afterthe spraying, the seedlings were kept at 25°-26° C. for a day and three disks of 4 mm in diameter containing mycelia of Sclerotinia sclerotiorum were put on a primary leaf and then 10 μl of PD broth were dropped on the disks. The treated seedlings were kept ina greenhouse (20° C.) for 2 days and then the diameters of the disease spots were measured by a pair of slide callipers. [formula]

Structure (SMILES)	pest or weed control at 500 ppm
CCc1noc(N(C)CC#CI)c1Cl [Comp. 1, 3-ethyl-4-chloro-5-(N-methyl-N-3-iodo-2-propynyl)-aminoisoxazole]	100%
CCc1cc(N(C)CC#CI)on1 [Comp. 5]	100%
CC(C)c1cc(N(C)CC#CI)on1 [Comp. 6]	100%
Cc1noc(N(C)CC#CI)c1Cl [Comp. 24]	100%
Cc1cc(N(C)CC#CI)no1 [compound 32, 3-(N-methyl-N-3-iodo-2-propynyl)amino-5-methylisoxazole]	100%

system: Trichophyton asteroides; test: Test A-2 Anti-fungal Activity (MCC); conditions: 168 h, read-out: MCC (Minimal Cidal Concentration)
Procedure: (§12) Some MCC (Minimal Cidal Concentration) values (Table 1) were obtained against Candida albicans and Trichophyton asteroides by the following method. After the MIC value was obtained by the microwell method, a loopful amount was picked up from the medium in which no growth of the fungus was observed, inoculated into a Subrouraud's glucose agar medium and incubated at 28° C. for 2 days in the case of C. albicans and for 7 days in the case of T. asteroides.

Structure (SMILES)	MFC
CC(C)c1cc(N(C)CC#CI)on1 [Comp. 6]	3.1 µg/mL (≈ 10.2 µM)
Cc1noc(N(C)CC#CI)c1Cl [Comp. 24]	3.1 µg/mL (≈ 9.98 µM)

system: Candida albicans M-9; test: Test A-1 Anti-fungal Activity (MIC), microwell dilution; assay type: cell-based; conditions: M9, C. albicans M-9, in vitro, 1×10^5 cells/ml
Procedure: (§2) Test A-1 Anti-fungal Activity (MIC)
(§3) The concentration of the test cells was 1×10^5 cells/ml and the activity was measured by a microwell dilution method. The structure of the test compounds is referred to in the Examples.

Structure (SMILES)	MIC
CCc1noc(N(C)CC#CI)c1Cl [Comp. 1, 3-ethyl-4-chloro-5-(N-methyl-N-3-iodo-2-propynyl)-aminoisoxazole]	3.1 µg/mL (≈ 9.55 µM)
CCc1cc(N(C)CC#CI)on1 [Comp. 5]	0.8 µg/mL (≈ 2.76 µM)
CC(C)c1cc(N(C)CC#CI)on1 [Comp. 6]	0.8 µg/mL (≈ 2.63 µM)
Cc1noc(N(C)CC#CI)c1Cl [Comp. 24]	0.2 µg/mL (≈ 0.644 µM)
CC(C)c1noc(N(C)CC#CI)c1Cl [Comp. 26]	6.3 µg/mL (≈ 18.6 µM)
Cc1cc(N(C)CC#CI)no1 [compound 32, 3-(N-methyl-N-3-iodo-2-propynyl)amino-5-methylisoxazole]	1.6 µg/mL (≈ 5.8 µM)

system: Aspergillus fumigatus; test: as above; assay type: cell-based; conditions: in vitro, 1×10^5 cells/ml
Procedure: as §2, §3

Structure (SMILES)	MIC
CCc1noc(N(C)CC#CI)c1Cl [Comp. 1, 3-ethyl-4-chloro-5-(N-methyl-N-3-iodo-2-propynyl)-aminoisoxazole]	6.3 µg/mL (≈ 19.4 µM)
CCc1cc(N(C)CC#CI)on1 [Comp. 5]	1.6 µg/mL (≈ 5.52 µM)
CC(C)c1cc(N(C)CC#CI)on1 [Comp. 6]	1.6 µg/mL (≈ 5.26 µM)
Cc1noc(N(C)CC#CI)c1Cl [Comp. 24]	0.8 µg/mL (≈ 2.58 µM)
CC(C)c1noc(N(C)CC#CI)c1Cl [Comp. 26]	50 µg/mL (≈ 148 µM)
Cc1cc(N(C)CC#CI)no1 [compound 32, 3-(N-methyl-N-3-iodo-2-propynyl)amino-5-methylisoxazole]	1.6 µg/mL (≈ 5.8 µM)

system: Pyricularia oryzae; test: not given; assay type: in vivo; conditions: 500 ppm; rice plant blast, 24 hours + 7 days

Structure (SMILES)	Percent Disease Control
Cc1cc(N(C)CC#CI)no1 [compound 32, 3-(N-methyl-N-3-iodo-2-propynyl)amino-5-methylisoxazole]	98%

system: Candida albicans; test: Test A-2 Anti-fungal Activity (MCC); conditions: 48 h, read-out: MCC (Minimal Cidal Concentration)
Procedure: as §12

Structure (SMILES)	MFC
CC(C)c1cc(N(C)CC#CI)on1 [Comp. 6]	25 µg/mL (≈ 82.2 µM)
Cc1noc(N(C)CC#CI)c1Cl [Comp. 24]	12.5 µg/mL (≈ 40.3 µM)

system: Botrytis cinerea; test: Test B-1 Control Test of Botrytis Rot (Gray Mold) of Cucumber; assay type: in vivo; conditions: 500 ppm, 3 days
Procedure: Test B-1 Control Test of Botrytis Rot (Gray Mold) of Cucumber Seedlings of Cucumber (Cultivar: Matsukaze) were planted and grown in soil in vinyl-chloride cups of 9 cm in diameter in a greenhouse. […] The treated cucumbers were kept for 3 days in a greenhouse (20° C.) and then disease degrees were counted. Standard of Evaluation […] (2) A slight soaked lesion on the reverse of the test leaf . . . × 5 (3) A slight fade of the leaf . . . × 10 (4) The inoculated part was faded and the fading expanded erosively . . . × 20 [formula]

Structure (SMILES)	Percent Disease Control
CCc1noc(N(C)CC#CI)c1Cl [Comp. 1, 3-ethyl-4-chloro-5-(N-methyl-N-3-iodo-2-propynyl)-aminoisoxazole]	100%
CCc1cc(N(C)CC#CI)on1 [Comp. 5]	100%
Cc1noc(N(C)CC#CI)c1Cl [Comp. 24]	100%
Cc1cc(N(C)CC#CI)no1 [compound 32, 3-(N-methyl-N-3-iodo-2-propynyl)amino-5-methylisoxazole]	100%

system: Trichophyton asteroides; test: Test A-1 Anti-fungal Activity (MIC), microwell dilution; assay type: cell-based; conditions: T. asteroides, in vitro, 1×10^5 cells/ml
Procedure: as §2
The following results (Table 1) were obtained in an anti-fungal activity test in vitro against Aspergillus fumigatus, Candida albicans M-9 and Trichophyton asteroides. The concentration of the test cells was 1×10^5 cells/ml and the activity was measured by a microwell dilution method. The structure of the test compounds is referred to in the Examples.

Structure (SMILES)	MIC
CCc1noc(N(C)CC#CI)c1Cl [Comp. 1, 3-ethyl-4-chloro-5-(N-methyl-N-3-iodo-2-propynyl)-aminoisoxazole]	0.8 µg/mL (≈ 2.46 µM)
CCc1cc(N(C)CC#CI)on1 [Comp. 5]	1.6 µg/mL (≈ 5.52 µM)
CC(C)c1cc(N(C)CC#CI)on1 [Comp. 6]	1.6 µg/mL (≈ 5.26 µM)
Cc1noc(N(C)CC#CI)c1Cl [Comp. 24]	0.4 µg/mL (≈ 1.29 µM)
CC(C)c1noc(N(C)CC#CI)c1Cl [Comp. 26]	1.6 µg/mL (≈ 4.73 µM)
Cc1cc(N(C)CC#CI)no1 [compound 32, 3-(N-methyl-N-3-iodo-2-propynyl)amino-5-methylisoxazole]	3.1 µg/mL (≈ 11.2 µM)

system: Pythium aphanidermatum; test: Test B-6 Control Test to Damping-off of Cucumber; assay type: in vivo; conditions: P*, 500 ppm, soil drench, 1 week
Procedure: (§4) Test B-6 Control Test to Damping-off of Cucumber
(§5) Twenty cucumber seeds were sown into sterilized soil (150 ml) in a pot of 9 cm in diameter. The fungi, Phythium aphanidermatum, Fusarium oxysporum and Rhizoctonia solani were cultured on a wheat bran medium for 5 days and an additional 2 days thereafter were mixed with sterilized soil. The surface of the sown spots was covered with the above culture medium. A test solution (30 ml) at a prescribed concentration was poured into each pot. The pots were kept in a greenhouse (28° C.) for 1 week in the case of Pythium and Rhizoctonia and for 2 weeks in the case of Fusarium.
(§6) The disease degree was observed and percent disease degree was calculated by the following formula: […]
(§7) (1) No germination . . . x 4
(§8) (2) Germed but withered . . . x 3
(§9) (3) Disordered in 1/3 or more . . . x 2
(§10) (4) Disordered in less than 1/3 . . . x 1
(§11) (5) Not damaged . . . x 0 [formula]
as §1

Structure (SMILES)	Percent Disease Control
Cc1noc(N(C)CC#CI)c1Cl [Comp. 24]	100%
Cc1cc(N(C)CC#CI)no1 [compound 32, 3-(N-methyl-N-3-iodo-2-propynyl)amino-5-methylisoxazole]	100%

system: Fusarium oxysporum; test: Test B-6 Control Test to Damping-off of Cucumber; assay type: in vivo; conditions: F*, 500 ppm, soil drench, 2 weeks
Procedure: as §4, §5, §6, §7, §8, §9, §10, §11, §1

Structure (SMILES)	Percent Disease Control
Cc1noc(N(C)CC#CI)c1Cl [Comp. 24]	93%
Cc1cc(N(C)CC#CI)no1 [compound 32, 3-(N-methyl-N-3-iodo-2-propynyl)amino-5-methylisoxazole]	50%

system: Rhizoctonia solani; test: Test B-6 Control Test to Damping-off of Cucumber; assay type: in vivo; conditions: R*, 500 ppm, soil drench, 1 week
Procedure: as §4, §5, §6, §7, §8, §9, §10, §11, §1

Structure (SMILES)	Percent Disease Control
Cc1noc(N(C)CC#CI)c1Cl [Comp. 24]	100%
Cc1cc(N(C)CC#CI)no1 [compound 32, 3-(N-methyl-N-3-iodo-2-propynyl)amino-5-methylisoxazole]	100%

system: Pseudoperonospora cubensis; test: Test B-3 Control Test to Downy Mildew of Cucumber; assay type: in vivo; conditions: 500 ppm, 7 days
Procedure: Test B-3 Control Test to Downy Mildew of Cucumber
Each cucumber seedling was sprayed with 2.5 ml of a test solution in the same manner as in Test B-1. After the spraying, the seedlings were kept at 25°-26° C. for a day and a zoosporangium suspension or Pseudoperonospora cubensis was inoculated at a rate of five spots per leaf on a primary leaf. The treated seedlings were kept in a greenhouse for 7 days and then observed.
(2) Slight disease at the inoculation spot . . . X5
(3) A disease spot in the same size as the inoculation spot (without spreading) . . . x10
(4) A disease spot larger than the inoculation spot . . . x20
Disease degree and percent disease control were calculated in the same manner as in Test B-1.

Structure (SMILES)	Percent Disease Control
CCc1noc(N(C)CC#CI)c1Cl [Comp. 1, 3-ethyl-4-chloro-5-(N-methyl-N-3-iodo-2-propynyl)-aminoisoxazole]	100%
CCc1cc(N(C)CC#CI)on1 [Comp. 5]	95.0%
CC(C)c1noc(N(C)CC#CI)c1Cl [Comp. 26]	100%

system: Mycoplasma gallisepticum; test: minimum inhibition concentration; assay type: cell-based; conditions: Mycoplasmoides gallisepticum, one range for the listed compounds

Structure (SMILES)	MIC
CCc1cc(N(C)CC#CI)on1 [Comp. 5]	6.25 to 12.5 µg/mL (≈ 21.5 to 43.1 µM)

system: Colletotrichum lagenarium; test: Test B-4 Control Test to Anthracnose of Cucumber; assay type: in vivo; conditions: 500 ppm, 3 + 3 days
Procedure: Test B-4 Control Test to Anthracnose of Cucumber Each cucumber seedling was sprayed with 2.5 ml of a test solution in the same manner as in Test B-1. After the spraying, the seedlings were kept at 25°-26° C. for a day and were inoculated with five filter-paper disks of 6 mm in diameter saturated with a conidium suspension of Colletotrichum lagenarium at a concentration of 1×10^6 conidia/ml. The treated seedlings were kept in a greenhouse (25° C.) for 3 days and further kept at below 25° C. for 3 days. Standard of Evaluation The same as noted in Test B-3.

Structure (SMILES)	Percent Disease Control
CCc1noc(N(C)CC#CI)c1Cl [Comp. 1, 3-ethyl-4-chloro-5-(N-methyl-N-3-iodo-2-propynyl)-aminoisoxazole]	100%
CC(C)c1cc(N(C)CC#CI)on1 [Comp. 6]	100%
CC(C)c1noc(N(C)CC#CI)c1Cl [Comp. 26]	100%

Source: patent US4576956A, “Iodo propargylaminoisoxazoles as fungicides” (Shionogi & Co., Ltd., priority 1982, dated 1986)
